The test system of assay [1] is S462. Briefly: drug sensitivity score (DSS, CellTiter-Glo viability, 72 h) (DSS (dimensionless)); higher = more sensitive; extreme values may be limits of the assay. The gist of the method: (§1)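 MPNST cell lines and primary human Schwann cells (750–1000 cells per well) went into 384-well plates preprinted with each compound at five concentrations in 10-fold steps. Plates were incubated 72 h at 37 °C, 5% CO2. Viability was read as CellTiter-Glo ATP luminescence, scaled between vehicle and positive-control wells, with duplicates averaged where present. Percent inhibition is at the top concentration; drug sensitivity score and relative IC50 (censored at top concentration) come from four-parameter logistic fits.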
For orientation: ATP-based viability assays read luminescence as a measure of living cells.

In assay [2] the test system is HSC1 (primary human Schwann cells). Described as above. In short, it runs like this: as §1
Assay [3] concerns S1507-2. Described as above. In short, it runs like this:
as §1

Assay [4] deals with HSC2 (primary human Schwann cells). The assay is described as above. The gist of the method: as §1
In assay [5] the test system is STS26T. The assay is described as above. The gist of the method:
as §1

The test system of assay [6] is ST8814. The description is as above. The gist of the method:
as §1

The subject of assay [7] is S462. Briefly: % inhibition of CellTiter-Glo viability at highest tested concentration (72 h), relative to DMSO and benzethonium chloride controls; higher = more inhibition. The gist of the method:
as §1

In assay [8] the test system is HSC1 (primary human Schwann cells). Described as above. The gist of the method:
as §1

Assay [9] has as its system S1507-2. The assay is described as above. The gist of the method: as §1
In assay [10] the test system is HSC2 (primary human Schwann cells). The description is as above. The gist of the method:
as §1

Assay [11] has as its system STS26T. The description is as above. In short, it runs like this:
as §1

Assay [12] deals with ST8814. The assay is described as above. In short, it runs like this: as §1
Assay [13] relates to HSC1 (primary human Schwann cells). The assay can be described thus: drug sensitivity score (DSS, CellTox-Green cytotoxicity, 72 h) (DSS (dimensionless)); higher = more cytotoxic; extreme values may be limits of the assay. In short, it runs like this: (§2)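 MPNST cell lines and primary human Schwann cells were incubated 72 h at 37 °C in 384-well plates holding five 10-fold compound dilutions. CellTox-Green was added before seeding at a final 1:1000 dilution and reported fluorescence from DNA released by disrupted cells. Signals were scaled to vehicle and positive-control wells, and cultures failing plate quality control were dropped. Drug sensitivity score and relative IC50 come from four-parameter logistic fits, with IC50 censored at the top concentration.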

Assay [14] relates to S1507-2. The assay is described as above. The gist of the method:
as §2

Assay [15] concerns HSC2 (primary human Schwann cells). The assay is described as above. The gist of the method:
as §2

Assay [16] relates to STS26T. The description is as above. The gist of the method: as §2
The test system of assay [17] is ST8814. Described as above. In short, it runs like this: as §2
In assay [18] the test system is HS-Sch-2. Briefly: drug sensitivity score (DSS, CellTiter-Glo viability, 72 h) (DSS (dimensionless)); higher = more sensitive; extreme values may be limits of the assay. In short, it runs like this:
as §1

The next assay deals with YST-1. Described as above. The gist of the method:
as §1

Assay [19] relates to HS-PSS. The assay is described as above. The gist of the method: as §1
Assay [20] concerns HS-Sch-2. The assay can be described thus: % inhibition of CellTiter-Glo viability at highest tested concentration (72 h), relative to DMSO and benzethonium chloride controls; higher = more inhibition. The gist of the method:
as §1

The test system of assay [21] is HS-PSS. Described as above. In short, it runs like this:
as §1

Assay [22] relates to HS-PSS. The assay can be described thus: drug sensitivity score (DSS, CellTox-Green cytotoxicity, 72 h) (DSS (dimensionless)); higher = more cytotoxic; extreme values may be limits of the assay. In short, it runs like this:
as §2

SMILES strings stand for the structures. ± gives the standard deviation of the averaged measurements.

We go through nine compounds from the supplement of paper PMC5579334.

As usually defined, the % inhibition is the drop in the measured response relative to a control, in per cent. With `CCN(CC)CCCC(C)Nc1ccnc2cc(Cl)ccc12` (stereo not given) [Chloroquine aq] (max concentration tested 100000 nM), the drug sensitivity score is 13 ± 1.7 in the assay on S462 [1]; 9.99 in assay [2]; 20.19 ± 0.053 in the assay on S1507-2 [3]; 9.45 in assay [4]; 14.5 in the assay with STS26T [5]; 17.4 in the assay with ST8814 [6]. In addition, the drug sensitivity score was 9.24 in assay [13]; 18.3 ± 0.29 in the assay on S1507-2 [14]; 8.02 in [15]; 15.1 with STS26T [16]; 18.6 in the assay on ST8814 [17]. Besides, the “% inhibition” value in the assay with S462 [7] was 95.68 ± 0.34%; in assay [8], 94.7%; in the assay with S1507-2 [9] it was 95.13 ± 0.85%; in [10], 94.5%; in the assay with STS26T [11], 96.2%; in the assay on ST8814 [12] it was 96.1%.

Take `CC1=C2C[C@H]3[C@@H](CC=C4C[C@@H](O)CC[C@@]43C)[C@@H]2CC[C@]12O[C@@H]1C[C@H](C)CN[C@H]1[C@H]2C` [Cyclopamine] (max concentration tested 10000 nM): the drug sensitivity score in the assay with S462 [1] came to 0; in assay [2] it was 0; in the assay with S1507-2 [3] it was 0.114 ± 0.16; in [4] it was 0; in the assay on STS26T [5], 0; in the assay on ST8814 [6], 0. Further, the drug sensitivity score in assay [13] came out at 0; in the assay on S1507-2 [14], 0.06 ± 0.085; in assay [15] it was 0; in the assay on STS26T [16], 0; in the assay with ST8814 [17] it was 0. Also, the “% inhibition” value is -1.34 ± 2.9% in the assay on S462 [7]; 9.19% in assay [8]; 11.5 ± 3% in the assay on S1507-2 [9]; 7.88% in assay [10]; 4.33% with STS26T [11]; -4.3% with ST8814 [12].

On to `CC(=O)N(O)CCCCCNC(=O)CCC(=O)N(O)CCCCCNC(=O)CCC(=O)N(O)CCCCCN` [Deferoxamine aq] (max concentration tested 10000 nM), for which the drug sensitivity score in the assay on S462 [1] stood at 6.82 ± 1.4; in assay [2], 5.55; in the assay with S1507-2 [3], 6.96 ± 1; in assay [4] it was 7.69; in the assay with STS26T [5] it was 5.09; in the assay on ST8814 [6], 9.08. The drug sensitivity score is 0 in [13]; 0.026 ± 0.037 in the assay on S1507-2 [14]; 0 in [15]; 0 in the assay on STS26T [16]; 3.55 with ST8814 [17]. Besides, the “% inhibition” value in the assay on S462 [7] was determined as 74.6 ± 9.3%; in assay [8] it was 60.6%; in the assay on S1507-2 [9], 61 ± 2.2%; in assay [10], 64.9%; in the assay on STS26T [11] it was 52.3%; in the assay on ST8814 [12], 88.2%.

In the case of `Cc1c(C(=O)Nc2ccc(N3C[C@@H](C)O[C@@H](C)C3)nc2)cccc1-c1ccc(OC(F)(F)F)cc1` [Erismodegib] (max concentration tested 10000 nM), the drug sensitivity score in the assay with S462 [1] stood at 0; in assay [2] it was 0; in the assay on S1507-2 [3] it was 0.871 ± 1.2; in assay [4] it was 0; with STS26T [5], 0.451; with ST8814 [6] it was 0. Besides, the drug sensitivity score in assay [13] was determined as 1.48; in the assay with S1507-2 [14], 14.8 ± 20; in [15], 4.95; in the assay with STS26T [16], 0; with ST8814 [17], 0. Besides, the “% inhibition” value amounted to 13.2 ± 2.2% in the assay with S462 [7]; 9.09% in assay [8]; 9.49 ± 1.4% in the assay on S1507-2 [9]; 8.65% in assay [10]; 16.9% with STS26T [11]; 1.35% with ST8814 [12].

Regarding `CC(C)NC[C@@H](C(=O)N1CCN(c2ncnc3c2[C@H](C)C[C@H]3O)CC1)c1ccc(Cl)cc1` [GDC-0068] (max concentration tested 10000 nM), the drug sensitivity score was determined as 0.195 ± 0.28 in the assay with S462 [1]; 0.374 in assay [2]; 2.03 ± 1 in the assay on S1507-2 [3]; 0 in [4]; 5.77 in the assay on STS26T [5]; 0.785 in the assay on ST8814 [6]. Also, the drug sensitivity score (in assay [13]; in the assay with S1507-2 [14]; in assay [15]; in the assay with STS26T [16]; with ST8814 [17]) was 0 in each case. The “% inhibition” value in the assay on S462 [7] was determined as 13.5 ± 7.9%; in [8], 21.6%; in the assay with S1507-2 [9], 31.5 ± 4.2%; in assay [10] it was 6.99%; with STS26T [11], 44%; with ST8814 [12], 17.1%.

Take `Cc1c(CN2CCN(C(=O)[C@H](C)O)CC2)sc2c(N3CCOCC3)nc(-c3cnc(N)nc3)nc12` [GDC-0980] (max concentration tested 10000 nM): the drug sensitivity score in the assay with S462 [1] stood at 10.5 ± 0.55; in [2], 11.8; in the assay with S1507-2 [3], 12.2 ± 0.97; in [4], 12.5; with STS26T [5], 12.5; in the assay with ST8814 [6], 9.92. In addition, the drug sensitivity score amounted to 0 in assay [13]; 0.544 ± 0.76 in the assay on S1507-2 [14]; 0 in assay [15]; 0 with STS26T [16]; 1.59 in the assay on ST8814 [17]. The “% inhibition” value in the assay with S462 [7] was found to be 76.6 ± 3.3%; in [8] it was 82.8%; in the assay on S1507-2 [9], 79.39 ± 0.55%; in assay [10], 80.9%; with STS26T [11] it was 83.4%; with ST8814 [12], 90%.

Turning to `CS(=O)(=O)N1CCN(Cc2cc3nc(-c4cccc5[nH]ncc45)nc(N4CCOCC4)c3s2)CC1` [Pictilisib] (max concentration tested 10000 nM), the drug sensitivity score in the assay on S462 [1] stood at 6.98 ± 0.18; in the assay with HS-Sch-2 [18] it was 4.35; in the assay with YST-1, 14.6; in assay [2], 7.89; in the assay with S1507-2 [3], 13.4 ± 2.3; in assay [4] it was 7.76. Further, the drug sensitivity score in the assay with STS26T [5] is 13.3; in the assay on HS-PSS [19] it was 5.78; with ST8814 [6], 9.07; in assay [13] it was 0; with S1507-2 [14] it was 0.342 ± 0.48; in assay [15] it was 0. Further, the drug sensitivity score in the assay with STS26T [16] was determined as 0; in the assay on HS-PSS [22], 0; in the assay with ST8814 [17], 1.86. The “% inhibition” value in the assay with S462 [7] was 68.53 ± 0.23%; in the assay on HS-Sch-2 [20] it was 51%; in [8] it was 78.7%; in assay [10], 83.3%; with HS-PSS [21] it was 52.1%.

Consider `Cc1ccc(C(=O)Nc2ccc(CN3CCN(C)CC3)c(C(F)(F)F)c2)cc1C#Cc1cnc2cccnn12` [Ponatinib] (max concentration tested 1000 nM), for which the drug sensitivity score in the assay with S462 [1] turned out to be 5.51 ± 0.34; with HS-Sch-2 [18], 5.57; in the assay on YST-1, 4.76; in assay [2], 6.62; with S1507-2 [3], 6.1 ± 0.6; in assay [4] it was 6.49. The drug sensitivity score worked out at 3.91 in the assay on STS26T [5], 2.2 in the assay on HS-PSS [19] and 8.31 in the assay with ST8814 [6].

On to `CCC(C)(C)C(=O)O[C@H]1C[C@@H](C)C=C2C=C[C@H](C)[C@H](CC[C@@H]3C[C@@H](O)CC(=O)O3)[C@H]21` [Simvastatin] (max concentration tested 10000 nM), for which the drug sensitivity score worked out at 2.409 ± 0.0062 in the assay on S462 [1]; 0 in the assay on HS-Sch-2 [18]; 0 with YST-1; 8.22 in assay [2]; 0.00035 ± 0.00049 in the assay on S1507-2 [3]; 9.94 in assay [4]. The drug sensitivity score in the assay on STS26T [5] was found to be 0.448; in the assay on HS-PSS [19] it was 3.55; in the assay with ST8814 [6], 0.23.
